Reference: patent US20070275007A1, “Carbohydrate Antigen-Nanoparticle Conjugates and Uses Thereof as Antimetastatic Agents in Treating Cancer” (The Government of the United States of America, represented …, priority 2003, published 2007)

Test: Solubility in water and organic solvents
Type: physicochemical

SMILES: CC(=O)NC1[C@H](OCCCCCS)OC(CO)[C@H](O)[C@@H]1O[C@@H]1OC(CO)[C@H](O)[C@H](O)C1O (stereo partly drawn) [126E-23]
- solubility in chloroform (chloroform): moderately soluble
- solubility in methanol (methanol (methanol and other organic solvents)): moderately soluble
- solubility in water (water): soluble
